Experimental data published in US8796457B2, “Compound useful for the treatment of degenerative and inflammatory diseases” (Galapagos NV, priority 2009, dated 2014).

Assays:
[1] = Caco2 permeability (bi-directional); format: in vitro ADME; settings: human, pH 7.4
Experimental: Bi-directional Caco-2 assays were performed as described below. Caco-2 cells were obtained from European Collection of Cell Cultures (ECACC, cat 86010202) and used after a 21 day cell culture in 24-well Transwell plates (Fisher TKT-545-020B).
2×10^5 cells/well were seeded in plating medium consisting of DMEM+GlutaMAXI+1% NEAA+10% FBS (FetalClone II)+1% Pen/Strep. The medium was changed every 2-3 days.
Test and reference compounds (propranolol and rhodamine123 or vinblastine, all purchased from Sigma) were prepared in Hanks' Balanced Salt Solution containing 25 mM HEPES (pH7.4) and added to either the apical (125 μL) or basolateral (600 μL) chambers of the Transwell plate assembly at a concentration of 10 μM with a final DMSO concentration of 0.25%.
50μM Lucifer Yellow (Sigma) was added to the donor buffer in all wells to assess integrity of the cell layers by monitoring Lucifer Yellow permeation. […]
Lucifer yellow was measured with a Spectramax Gemini XS (Ex 426 nm and Em 538 nm) in a clean 96 well plate containing 150 μL of liquid from basolateral and apical side.
Concentrations of compound in the samples were measured by high performance liquid-chromatography/mass spectroscopy (LC-MS/MS).
The Efflux ratios, as an indication of active efflux from the apical cell surface, were calculated using the ratio of PappB>A/Papp A>B.

[2] = test system: HeLa cells, STAT signalling; assay: JAK-STAT signalling assay (pSTAT1(2)-luciferase reporter, OSM trigger); format: cell-based; settings: human OSM 33 ng/mL
Experimental: HeLa cells were maintained in Dulbecco's Modified Eagle's Medium (DMEM) containing 10% heat inactivated fetal calf serum, 100 U/mL penicillin and 100 μg/mL streptomycin. HeLa cells were used at 70% confluence for transfection. 20,000 cells in 87 μL cell culture medium were transiently transfected with 40 ng pSTAT1(2)-luciferase reporter (Panomics), 8 ng of LacZ reporter as internal control reporter and 52 ng of pBSK using 0.32 μL Jet-PEI (Polyplus) as transfection reagent per well in 96-well plate format. After overnight incubation at 37° C., 10% CO2, transfection medium was removed. 75 μL of DMEM+1.5% inactivated fetal calf serum was added. 15 μL of compound at 6.7× concentration was added for 60 min and then 10 μL of human OSM (Peprotech) at 33 ng/mL final concentration. […]
40 μL of cell lysate was used to read β-galactosidase activity by adding 180 μL βGal solution (30 μl ONPG 4 mg/mL+150 μL β-Galactosidase buffer (0.06 M Na2HPO4, 0.04 M NaH2PO4, 1 mM MgCl2)) for 20 min. The reaction was stopped by addition of 50 μL Na2CO3 1 M. Absorbance was read at 405 nm
Luciferase activity was measured using 40 μL cell lysate plus 40 μl of Steadylite® as described by the manufacturer (Perkin Elmer), on the Envision (Perkin Elmer). […]

[3] = Microsomal stability, rat; format: in vitro ADME; settings: rat liver microsomes, 3 μM compound, 37° C.
Experimental: A 10 mM stock solution of compound in DMSO was diluted 1000 fold in a 182 mM phosphate buffer pH7.4 in a 96 deep well plate (Greiner, Cat no. 780285) and pre-incubated at 37° C.
40 μL of deionised water was added to a well of a polypropylene Matrix 2D barcode labelled storage tube (Thermo Scientific) and pre-incubated at 37° C.
A Glucose-6-phophate-dehydrogenase (G6PDH) working stock solution was prepared in 182 mM phosphate buffer pH7.4 and placed on ice before use. A co-factor containing MgCl2, glucose-6-phosphate and NADP+ was prepared in deionised water and placed on ice before use. […]
These plates were sealed with sealing mats (MA96RD-04S) of www.kinesis.co.uk and samples were measured at room temperature on LCMS (ZQ 1525 from Waters) under optimized conditions using Quanoptimize to determine the appropriate mass of the parent molecule.
The samples were analyzed on LCMS with a flow rate of 1 mL/min. […]
Peak area from the parent compound at time 0 was considered to be 100% remaining. The percentage remaining after 1 hour incubation was calculated from time 0 and was calculated as the percentage remaining. […]
The data on microsomal stability are expressed as a percentage of the total amount of compound remaining after 60 minutes.

Q: Which results are given for `CC1(C)CN(C(=O)c2ccc(-c3cccc4nc(NC(=O)C5CC5)nn34)cc2)C1` [Compound 1, Cyclopropanecarboxylic acid{5-[4-(3,3-dimethyl-azetidine-1-carbonyl)-phenyl]-[1,2,4]triazolo[1,5-a]pyridin-2-yl}-amide]?
A: Papp at 1 h, 10 μM ([1]; Caco-2, 10 μM, 1 hour, pH7.4): 78 ± 8 nm/s; efflux ratio at 1 h, 10 μM ([1]; Caco-2, Papp B>A / Papp A>B): 6.1 ± 0.6; EC50 [2]: 0.539 ± 0.13 µM; Microsomal stability, percentage of compound remaining after 60 minutes, Rat [3]: 76-100%
